Reference: PubChem BioAssay AID504419 (The Scripps Research Institute Molecular Screening Center, 2011)
Activity calls are given as the source filed them. No rule for the calls is given here.

What was measured:
NS3h 1b (con1) = experiment: strain-dependent HCV NS3h unwinding inhibition – biochemical, real-time fluorescence, genotypes 2a and 1b, Set 2, selectivity assay for HCV NS3 helicase inhibitor project, late-stage follow-up (AID 504419); details: Recombinant NS3 helicase
NS3h 2a (JFH1) = experiment: as above; details: Recombinant NS3 helicase

For `CNc1ccc(Br)cc(C(=O)/C=C/c2cc(OC)ccc2OC)c1=O`, the IC50 (NS3h 1b (con1)) was > 100 µM (inactive) and the IC50 (NS3h 2a (JFH1)) was > 100 µM (inactive).
For `CCCCCCCCCc1nc2sc3c(c2c(=O)n1NC(=O)c1ccccc1[N+](=O)[O-])CC(C)(C)OC3`, the IC50 (NS3h 1b (con1)) was > 100 µM (inactive) and the IC50 (NS3h 2a (JFH1)) was > 100 µM (inactive).
For `Cc1ccc2nc(-c3ccc4nc(-c5ccc(NC(=O)c6ccc7ccccc7c6)cc5)sc4c3)sc2c1S(=O)(=O)O`, the IC50 (NS3h 1b (con1)) was 2.93 µM and the IC50 (NS3h 2a (JFH1)) was 1.71 µM.
With `CCOc1ccc(N2C(=O)C3Sc4[nH]c(=O)sc4C(/C=C/c4ccccc4)C3C2=O)cc1` (stereo not drawn) the IC50 (NS3h 1b (con1)) was > 100 µM (inactive) and the IC50 (NS3h 2a (JFH1)) was > 100 µM (inactive).
